The values that follow come from patent US7468449B2, “Phenyl-furan compounds as vitamin D receptor modulators” (Eli Lilly and Company, priority 2003, dated 2008).

One data set concerns the target T1, VDR (Homo sapiens, UniProt P11473).
T1 construct: the receptor expression vector pGal-4-VDR-LBD (10 ng); expressed in transfected cells; host or cells: Caco-2 cells
T1 sequence (P11473 127-423 limits assumed): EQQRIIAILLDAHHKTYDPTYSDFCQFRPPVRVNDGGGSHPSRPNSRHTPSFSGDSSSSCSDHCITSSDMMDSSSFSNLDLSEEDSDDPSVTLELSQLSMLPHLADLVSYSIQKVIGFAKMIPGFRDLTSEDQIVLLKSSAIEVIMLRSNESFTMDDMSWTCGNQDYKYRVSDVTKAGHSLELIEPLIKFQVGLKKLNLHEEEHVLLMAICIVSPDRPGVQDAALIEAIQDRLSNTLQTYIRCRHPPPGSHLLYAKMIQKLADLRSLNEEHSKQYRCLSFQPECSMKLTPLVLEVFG
Briefly: VDR CTF (Caco-2 cell co-transfection) assay. Type of data set: cell-based. The conditions noted are these: Caco-2 cells, Gal-4-VDR-LBD co-transfection; Table 1. Here is the method: 2. The Caco-2 Cell Co-transfection Assay:
The Caco-2 cell assay is an indicator for the undesirable condition of hypercalcemia. This co-transfection assay is a surrogate assay for in vivo calcemic activity of VDR ligands. […] Preferred assay results are greater than 1000 nM.
Step 4: FuGENE, DNA and Media Complex to-well plate • Add FuGENE-DNA-Media complex from step 3 to each plate • Incubate. […] Day 4: Luciferase Assay • Read the plates after drug treatment • Remove part of media from all the wells and leave remainder • Add Steady-Glo Luciferase Reagent mixture/wells • Incubate • Count each well using a Luminescence counter, Top Count NXT by Packard Set a delay between plates to reduce the background. (2) Materials and Method for The Caco-2 Cell Assay:
Caco-2 cells, grown in phenol red free, DMEM (Invitrogen, Carlsbad, Calif.) containing 10% charcoal-stripped FCS (Hyclone, Logan, Utah), were transfected with Fugene 6 reagent (Roche Diagnostics, Indianapolis, Ind.). Cells (5000/well) were plated 18 h before transfection in a 96 well plate. The Cells were transfected with Gal-4-responsive reporter pFRLuc (150 ng, Stratagene, La Jolla Calif.) and the receptor expression vector pGal-4-VDR-LBD (10 ng), along with Fugene 6 reagent (0.2 μl/well). The DNA-Fugene complex was formed by incubating the mixture for 30 min at room temperature. The cells were transfected in triplicate for 5 h, and treated with various concentrations of VDR ligands (form 0.01 nM to 10,000 nM concentration range) 18 h post-transfection. The luciferase activity was quantified using Steady-Glo reagent kit (Promega, Madison, Wis.) as per manufacturer's specifications.

The nature of data set [1]: Mouse hypercalcemia assay. The note with it: six day hypercalcemia test, oral gavage, serum ionized calcium; Table 1.
Method: The Mouse Hypercalcemia Assay
(§1) The Mouse Hypercalcemia Assay is a six day hypercalcemia test for toxicity and selectivity. Acceptable test results are levels greater than 300 μg/kg/day. Preferred assay results are levels greater than 1000 μg/kg/day.
(§2) (4) Materials and Method for The Mouse Hypercalcemia Assay:
(§3) Weanling, virus-antibody-free, five to six weeks old female DBF mice (Harlan, Indianapolis, Ind.) are used for all the studies. Animals are allowed to acclimate to local vivarium conditions for 2 days. […] The animals then are divided into groups with 4-5 mice per group. Different doses of test compounds prepared in 10% Ethanol and 90% sesame oil are administered to mice orally via gavage for 6 days. 1α-25(OH)2D3 0.5 μg/kg/d was also given to one group of mice as the positive control. […] Raw data of group differences is assessed by analysis of variance (ANOVA) using Fisher's protected least significant difference (PLSD) where the significance level was P<0.05.
The subject of the next data set is rat osteocalcin promoter. In words: OCN (osteocalcin) promoter assay. In kind it is cell-based. The conditions noted are these: RG-15 (ROS 17/2.8) cells, 48 hr treatment, Table 1. Here is the method: 3. The OCN (osteocalcin) Promoter Assay
The OCN Promoter Assay is an indicator and marker for osteoporosis. […] Preferred assay results are less than 50 nM.
(3) Materials and Method for The OCN Promoter Assay:
The activation of osteocalcin by VDR ligands was evaluated in a rat osteoblast-like cell line RG-15 (ROS 17/2.8) stably expressing rat osteocalcin promoter fused with luciferase reporter gene. […] After 24 hr, cells (in DMEM/F-12 medium +2% FBS) were treated with various concentrations of compounds, dissolved in DMSO. The final DMSO concentration remained at 0.01% (v/v). After 48 hr treatment, the medium was removed, cells were lysed with 50 μl of lysis buffer (From Luciferase reporter assay system, Roche Diagnostics, Indianapolis, Ind.) and assayed for luciferase activity using the Luciferase Reporter Gene Assay kit from Boehringer Mannheim as per manufacturer's specifications.

In a further data set the target is T2, RXR-VDR heterodimer (Homo sapiens, UniProt P11473).
T2 construct: Add the Gal-4-RXR-DEF and VP16-VDR-LBD; expressed in transfected cells; host or cells: SaOs-2 cells
T2 sequence (P11473 127-423 limits assumed): T1 sequence (P11473 127-423 limits assumed)
T2 sequence (P19793 201-462 partner limits assumed): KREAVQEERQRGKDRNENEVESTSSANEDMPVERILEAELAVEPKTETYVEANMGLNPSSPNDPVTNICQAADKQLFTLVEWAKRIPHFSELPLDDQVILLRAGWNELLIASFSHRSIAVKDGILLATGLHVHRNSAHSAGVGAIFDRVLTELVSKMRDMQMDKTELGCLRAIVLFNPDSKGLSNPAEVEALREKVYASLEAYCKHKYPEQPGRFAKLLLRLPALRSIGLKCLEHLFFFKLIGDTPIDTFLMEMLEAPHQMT
Briefly: RXR-VDR heterodimerization assay (SaOS-2 cells). Type of data set: cell-based. The note with it: luciferase reporter, Table 1. The text has this:
1. The RXR-VDR Heterodimer Assay:
This assay provides the VDR activity of a test compound.
(1) Materials and Method for RXR-VDR Heterodimerization Assay:
Transfection/Treatment Media: • D-MEM Low Glucose Without Phenol Red only
Flat well Plates: • Use well plate to plate cells • Use Deep well plate sterile to make up treatment media.
Luciferase Assay Reagent: • Use Steady-Glo Luciferase Reagent from Promega (Cat #E2550) Consists of: • a. E2533 Assay Substrate, lyopholized product and • b. E2543 Assay Buffer. • Thaw at room temperature • Store Day 1: Cell Plating: • Cell Harvesting • Aspirate media from culture flask, rinse cells with HBSS and aspirate. • Add trypsin and incubate. • When cells appear detached, resuspend cells in growth media. • Transfer into a new flask with fresh growth media for passaging the cells. • Plate well plates and two extra plates A. Cell Count • Mix the cell suspension using pipette • Use Hematocytometer to count the cells • Load cell suspension onto the hemocytometer chamber • Count cells.
Step 1: DNA and Media • Add plain DMEM media to tubes for mixing the DNA • Add the Reporter gene pFR-LUC • Add the Gal-4-RXR-DEF and VP16-VDR-LBD
Step 2: FuGENE and Media • Prepare plain DMEM media in a ubes for mixing PuGENE • Add FuGENE 6 Transection Reagent • Incubate
Step 3: FuGENE, DNA and Media Complex • Add FuGENE Media complex from step 2 to DNA Media complex from step1 • Incubate
Step 4: FuGENE, DNA and Media Complex to-well plate • Add FuGENE-DNA-Media complex from step 3 to each plate • Incubate. […] Day 4: Luciferase Assay • Read the plates after drug treatment • Remove part of media from all the wells and leave remainder • Add Steady-Glo Luciferase Reagent mixture/wells • Incubate • Count each well using a Luminescence counter, Top Count NXT by Packard Set a delay between plates to reduce the background. (2) Materials and Method for The Caco-2 Cell Assay: […]
For orientation: Reporter assays use an easily measured gene product as a stand-in for the process of interest.

The next data set concerns KERtr cells. Briefly: Keratinocyte proliferation assay. Type of data set: cell-based, Human. The note with it: BrdU incorporation. As for the experimental part:
5. The Keratinocyte Proliferation Assay
This Assay is indicative for the treatment of psoriasis.
(5) The Keratinocyte Proliferation Assay:
KERtr cells (Human skin keratinocyte transformed with a retrovirus vector, obtained from ATCC) were plated in 96-well flat-bottomed plates (3000 cells/well) in 100 μl keratinocyte serum free medium supplemented with bovine pituitary extract in the absence of EGF (Life Technologies, Rockville, Md.) and incubated at 37° C. for two days. The cells were treated with various concentrations of VDR ligands (ten-fold serial dilution from 10,000 nM to 0.1 nM in triplicate), dissolved in 100 μl keratinocyte serum free medium supplemented with bovine pituitary extract in the absence of EGF and incubated at 37° C. for 72 hr. […] Potency values (IC50) values were determined as the concentration (nM) of compound that elicited a half-maximal response.
In general terms: Uptake of a labelled nucleoside into DNA is a usual measure of proliferation.

The next data set deals with IL-10. In words: IL-10 induction assay in PBMCs. The note with it: TPA/PHA stimulated human PBMCs. Type of data set: cell-based. The text has this: 6. The IL-10 induction Assay
This is an in vitro efficacy assay for psoriasis, abscess and adhesion. Psoriasis involves both keratinocytes and immune cells. IL-10 is a unique cytokine because it is anti-inflammatory and immunosuppressive. This assay tells us whether a VDRM is able to function as an agonist in PBMCs ([…]) or not.
(6) Materials and Method for human IL-10 Induction Assay: […]

For data set [2] the following is noted: in vivo, po.
Method: The Mouse Hypercalcemia Assay
as §1, §2, §3
Where [3] appears, read: 72 hr, Table 2, read-out: Kera. Prolif. IC50.

pEC50, pIC50: −log10 of the molar value. Where “and” joins values, the source holds several entries; their conditions need not be identical. Identical values can stand only once. Like-named read-outs stand apart in the source and are kept apart here. A value given as a limit tells only on which side of the number the result lay.

On VDR, `CCc1cc(C(CC)(CC)c2ccc(C(=O)N(C)OC)o2)ccc1OCC(O)C(C)(C)C` (single isomer, unassigned; enantiomer 1) [Ex. 13, 3′-[4-(2-hydroxy-3,3-dimethyl-butoxy)-3-ethylphenyl]-3′-[5-N-methoxy-N-methylamino-carbonyl-2-furanyl]pentane enantiomer 1] showed a concentration for a half-maximal effect (EC50) of 572 nM. Also, the “Mouse Hypercal” value in data set [1] is >3000 µg/kg/day. Besides, the figures for the pEC50 in the data set on rat osteocalcin promoter and on RXR-VDR heterodimer were 7.70 and 7.74, respectively. For the same compound, the pIC50 in the data set on KERtr cells (setting [3]) was 7.74; in the data set with IL-10 (Table 2), 8.34.

Consider `CCc1cc(C(CC)(CC)c2ccc(C(=O)N(C)C)o2)ccc1OCC(O)C(C)(C)C` (single isomer, unassigned; enantiomer 2) [Ex. 11, 3′-[4-(2-hydroxy-3,3-dimethyl-butoxy)-3-ethylphenyl]-3′-[5-dimethylaminocarbonyl-2-furanyl]pentane enantiomer 2], for which the response at VDR was half-maximal at 572 nM (EC50). Also, the “Mouse Hypercal” value in data set [1] is >3000 µg/kg/day. Further, the values for the pEC50 with rat osteocalcin promoter and at RXR-VDR heterodimer were 7.70 and 7.75, respectively. Besides, the pIC50 in the data set with KERtr cells (setting [3]) is 7.74.

With `C=C1/C(=C\C=C2/CCC[C@]3(C)[C@@H]([C@H](C)CCCC(C)(C)O)CC[C@@H]23)C[C@@H](O)C[C@@H]1O` [AA, 1α,25-dihydroxyvitamin D3], the “Mouse Hypercal” value in data set [2] was 0.06 µg/kg/day.

As to `CCNC(=O)c1ccc(C(CC)(CC)c2ccc(OCC(=O)C(C)(C)C)c(C)c2)o1` [Ex. 6, 3′-[4-(2-oxo-3,3-dimethyl-butoxy)-3-methylphenyl]-3′-[5-ethylaminocarbonyl-2-furanyl]-pentane], the half-maximal effective concentration (EC50) on VDR was determined as 315 nM. Further, the negative logarithm of the EC50 (pEC50) with rat osteocalcin promoter is < 6.00; on RXR-VDR heterodimer, 6.49. In addition, in the data set with KERtr cells (setting [3]), the pIC50 was 6.95.

Regarding `C=C1/C(=C\C=C2/CCC[C@]3(C)[C@@H]([C@H](C)/C=C/[C@@H](O)C4CC4)CC[C@@H]23)C[C@@H](O)C[C@@H]1O` [FF, calcipotriol, reference compound], the pIC50 in the data set with KERtr cells (Homo sapiens, Keratinocyte, 72 h, Table 4 comparison compounds, read-out: Kera. Prolif. IC50) is 6.99; with IL-10 (PBMC, Table 4 comparison compounds) it was 9.30.

In the case of `CCC(CC)(c1ccc(OCC(=O)C(C)(C)C)c(C)c1)c1oc(C(=O)N(C)C)cc1C` [Ex. 8, 3′-[4-(2-oxo-3,3-dimethyl-butoxy)-3-methylphenyl]-3′-[5-dimethylaminocarbonyl-3-methyl-2-furanyl]-pentane], the EC50 on VDR amounted to 758 nM. Also, the negative-log EC50 (pEC50) with rat osteocalcin promoter was 6.90; on RXR-VDR heterodimer it was 6.81. The pIC50 in the data set on KERtr cells (setting [3]) is < 6.00.

Compound `CCC(CC)(c1ccc(OCC(=O)C(C)(C)C)c(C)c1)c1ccc(C(=O)N(C)C)o1` [Ex. 1, 3′-[4-(2-oxo-3,3-dimethylbutoxy)-3-methylphenyl]-3′-[5-dimethylaminocarbonyl-2-furanyl]pentane] gave a half-maximal effective concentration (EC50) on VDR of 191 nM. Besides, in data set [1], the “Mouse Hypercal” value is >1500 µg/kg/day. Further, the pEC50 in the data set with rat osteocalcin promoter was 8.52; in the data set with rat osteocalcin promoter (Rattus norvegicus, 48 h) it was 8.30; on RXR-VDR heterodimer it was 8.48 and 9.22. In addition, in the data set with KERtr cells (Homo sapiens, Keratinocyte, 72 h, Table 2, read-out: Kera. Prolif. IC50), the negative-log IC50 (pIC50) is 7.82.

`CCN(C)C(=O)c1ccc(C(CC)(CC)c2ccc(OCC(O)C(C)(C)C)c(C)c2)o1` (centres unmarked) [Ex. 9, 3′-[4-(2-hydroxy-3,3-dimethyl-butoxy)-3-methylphenyl]-3′-[5-N-ethyl-N-methylamino-carbonyl-2-furanyl]pentane] yielded an EC50 on VDR of 616 nM. For the same compound, the pEC50 with rat osteocalcin promoter is 7.52; at RXR-VDR heterodimer, 7.80. The pIC50 with KERtr cells (setting [3]) is 7.55.

One may read the EC50 as the midpoint of the concentration-response curve. Read a low EC50 as an effect from little substance. One may read the pEC50 as −log10 of the EC50, conventionally taken in molar units. For orientation: pIC50 means the IC50 on a negative log10 scale, so that one unit is a factor of ten.
